Our source for the melting point values is patent US7223791B2, “Function regulator for retinoid relative receptor” (Takeda Pharmaceutical Company Limited, priority 2001, dated 2007).

Each structure is given as a SMILES string. A value given as a limit tells only on which side of the number the result lay.

In general, melting point refers to the temperature of the solid-liquid transition.

The molecule `COC(=O)c1cccc(-c2cc(-c3ccc(Cl)cc3)on2)c1` [Example 22, methyl 3-[5-(4-chlorophenyl)-3-isoxazolyl)benzoate] had a melting point of 157 to 158 °C.
For `O=C(O)c1ccc(-c2n[nH]c(-c3ccccc3)n2)cc1` [Example 38, 4-(5-phenyl-1H-1,2,4-triazol-3-yl)benzoic acid], the melting point was more than 300 °C.
Consider `Nc1cc(C(=O)O)ccc1-c1nnc(-c2ccc(C(F)(F)F)cc2)o1` [Example 71, 3-amino-4-[5-(4-trifluoromethylphenyl)-1,3,4-oxadiazol-2-yl]benzoic acid], for which the melting point was more than 300 °C.
For `Nc1cc(C(=O)O)ccc1-c1nc(-c2ccc(Cl)cc2)no1` [Example 64, 3-amino-4-[3-(4-chlorophenyl)-1,2,4-oxadiazol-5-yl]benzoic acid] the value was 294 to 296 °C (dec.).
The value for `O=C(O)c1cc(-c2ccc(-c3ccc(C(F)(F)F)cc3)o2)ccc1O` [Example 12, 5-[5-(4-trifluoromethylphenyl)-2-furyl]salicylic acid] was 272 to 273 °C; that for `COC(=O)c1ccc(-c2nc(-c3ccccc3)n(C)n2)cc1` [Example 37, methyl 4-(1-methyl-5-phenyl-1H-1,2,4-triazol-3-yl)benzoate] was 167 to 168 °C; that for `COC(=O)c1ccc(-c2cc(-c3ccccc3)no2)cc1` [Example 17, methyl 4-(3-phenyl-5-isoxazolyl)benzoate] was 205 to 206 °C.
For `COC(=O)c1ccc(-c2nc(-c3ccc(Cl)cc3)no2)c([N+](=O)[O-])c1` [Example 60, methyl 4-[3-(4-chlorophenyl)-1,2,4-oxadiazol-5-yl]-3-nitrobenzoate] the value was 189 to 190 °C.
In the case of `COC(=O)c1ccc(-c2n[nH]c(-c3ccccc3)n2)cc1` [Example 36, methyl 4-(5-phenyl-1H-1,2,4-triazol-3-yl)benzoate], the melting point lay within 243 to 244 °C.
`COC(=O)c1ccc(-c2cc(-c3ccc(Cl)cc3)on2)cc1` [Example 23, methyl 4-[5-(4-chlorophenyl)-3-isoxazolyl]benzoate] yielded a melting point of 225 to 226 °C.
For `CC(C)(C)c1ccc(-c2nnc(-c3ccc(C(=O)O)cc3)o2)cc1` [Example 50, 4-[5-(4-t-butylphenyl)-1,3,4-oxadiazol-2-yl]benzoic acid] the value was 284 to 286 °C.
For `CC(C)(C)c1ccc(-c2nnc(-c3ccc(C(=O)O)cc3[N+](=O)[O-])o2)cc1` [Example 70, 4-[5-(4-t-butylphenyl)-1,3,4-oxadiazol-2-yl]-3-nitrobenzoic acid] the value was 233 to 235 °C.
In turn, `O=C(O)c1ccc(-c2cc(-c3ccc(Cl)cc3)no2)cc1` [Example 25, 4-[3-(4-chlorophenyl)-5-isoxazolyl]benzoic acid] came in with a melting point of more than 300 °C.
For `O=C(O)c1ccc(-c2nnc(-c3ccc(C(F)(F)F)cc3)s2)cc1` [Example 59, 4 [5-(4-trifluoromethylphenyl)-1,3,4-thiadiazol-2-yl]benzoic acid] the value was more than 300 °C; for `CCOC(=O)c1ccc(-c2nc(-c3ccccc3)ccc2Cl)cc1` [Example 1, ethyl 4-(3-chloro-6-phenyl-2-pyridyl)benzoate], 81 to 82 °C.
With `COC(=O)c1ccc(-c2nnc(-c3ccc(C(C)(C)C)cc3)o2)cc1` [Example 47, methyl 4-[5-(4-t-butylphenyl)-1,3,4-oxadiazol-2-yl]benzoate], the melting point is 210 to 211 °C.
The value for `CC(C)(C)c1ccc(-c2nnc(-c3ccc(C(=O)O)cc3N)o2)cc1` [Example 72, 3-amino-4-[5-(4-t-butylphenyl)-1,3,4-oxadiazol-2-yl]benzoic acid] was 266 to 268 °C.
`O=C(O)c1cccc(-c2nnc(-c3ccc(C(F)(F)F)cc3)o2)c1` [Example 51, 3-[5-(4-trifluoromethylphenyl)-1,3,4-oxadiazol-2-yl]benzoic acid] returned a melting point of 239 to 240 °C.
For `CCOC(=O)c1ccc(-c2nnc(-c3ccccc3[N+](=O)[O-])o2)cc1` [Example 53, ethyl 4-[5-(2-nitrophenyl)-1,3,4-oxadiazol-2-yl]benzoate] the value was 127 to 128 °C; for `O=C(O)c1ccc(-c2nc(-c3ccc(Oc4ccccc4)cc3)no2)cc1` [Example 43, 4-[3-(4-phenoxyphenyl)-1,2,4-oxadiazol-5-yl]benzoic acid], 278 to 279 °C; for `NC(=O)c1ccc(-c2ccc(-c3ccc(C(F)(F)F)cc3)o2)cc1` [Example 73, 4-[5-(4-trifluoromethylphenyl)-2-furyl]benzamide], 263 to 264 °C.
`COC(=O)c1cccc(-c2cc(-c3ccccc3)on2)c1` [Example 20, methyl 3-(5-phenyl-3-isoxazolyl)benzoate] returned a melting point of 99 to 100 °C.
As for `COC(=O)c1cccc(-c2cc(-c3ccc(C(F)(F)F)cc3)on2)c1` [Example 31, methyl 3-[5-(4-trifluoromethylphenyl)-3-isoxazolyl]benzoate], the melting point is 139 to 140 °C.
Molecule `COC(=O)c1ccc(-c2nc(-c3ccc(C(C)(C)C)cc3)no2)c(N)c1` [Example 74, methyl 3-amino-4-[3-(4-t-butylphenyl)-1,2,4-oxadiazol-5-yl]benzoate] yielded a melting point of 195 to 196 °C.
`O=Cc1ccc(-c2nnc(-c3ccccc3[N+](=O)[O-])o2)cc1` [Example 81, 4-[5-(2-nitrophenyl)-1,3,4-oxadiazol-2-yl]benzaldehyde]: the melting point is 189 to 190 °C.
Take `O=C(O)c1ccc(-c2nc(-c3ccccc3)ccc2Cl)cc1` [Example 2, 4-(3-chloro-6-phenyl-2-pyridyl)benzoic acid]: the melting point fell in the range of 254 to 255 °C.
On to `CCOC(=O)c1ccc(-c2ccc(-c3ccc(C(F)(F)F)cc3)s2)cc1` [Example 14, ethyl 4-[5-(4-trifluoromethylphenyl)-2-thienyl]benzoate], for which the melting point is 203 to 204 °C.
The value for `O=Cc1cccc(-c2nnc(-c3ccc(C(F)(F)F)cc3)o2)c1` [Example 80, 3-[5-(4-trifluoromethylphenyl)-1,3,4-oxadiazol-2-yl]benzaldehyde] was 129 to 130 °C; that for `CCOC(=O)c1ccc(-c2ccc(-c3ccc(C(F)(F)F)cc3)n2C)cc1` [Example 3, ethyl 4-[1-methyl-5-(4-trifluoromethylphenyl)-2-pyrrolyl]benzoate] was 150 to 151 °C.
The value for `O=C(O)c1ccc(-c2nc(-c3ccc(Cl)cc3)no2)c([N+](=O)[O-])c1` [Example 62, 4-[3-(4-chlorophenyl)-1,2,4-oxadiazol-5-yl]-3-nitrobenzoic acid] was 257 to 258 °C; that for `O=C(OCc1ccccc1)c1cc(-c2ccc(-c3ccc(C(F)(F)F)cc3)o2)ccc1OCc1ccccc1` [Example 11, benzyl 2-benzyloxy-5-[5-(4-trifluoromethylphenyl)-2-furyl]benzoate] was 97 to 98 °C.
`Cn1nc(-c2ccc(C(=O)O)cc2)nc1-c1ccccc1` [Example 39, 4-(1-methyl-5-phenyl-1H-1,2,4-triazol-3-yl)benzoic acid] yielded a melting point of 243 to 244 °C.
The value for `COC(=O)c1ccc(-c2nnc(-c3ccccc3)o2)cc1` [Example 45, methyl 4-(5-phenyl-1,3,4-oxadiazol-2-yl)benzoate] was 172 to 173 °C; that for `COC(=O)c1ccc(-c2cc(-c3ccc(Cl)cc3)no2)cc1` [Example 18, methyl 4-[3-(4-chlorophenyl)-5-isoxazolyl]benzoate] was 225 to 226 °C; that for `O=C(O)c1ccc(-c2nnc(-c3ccc(C(F)(F)F)cc3)o2)c([N+](=O)[O-])c1` [Example 69, 3-nitro-4-[5-(4-trifluoromethylphenyl)-1,3,4-oxadiazol-2-yl]benzoic acid] was 254 to 255 °C.
On to `COC(=O)c1ccc(-c2nnc(-c3ccc(C(F)(F)F)cc3)o2)c([N+](=O)[O-])c1` [Example 67, methyl 3-nitro-4-[5-(4-trifluoromethylphenyl)-1,3,4-oxadiazol-2-yl]benzoate], for which the melting point lay in the range of 173 to 174 °C.
For `COC(=O)c1ccc(-c2nc(-c3ccc(Cl)cc3)no2)c(N)c1` [Example 75, methyl 3-amino-4-[3-(4-chlorophenyl)-1,2,4-oxadiazol-5-yl]benzoate] the value was 227 to 228 °C; for `Nc1ccccc1-c1nnc(-c2ccc(C(=O)O)cc2)o1` [Example 55, 4-[5-(2-aminophenyl)-1,3,4-oxadiazol-2-yl]benzoic acid], more than 300 °C.
Turning to `COC(=O)c1ccc(-c2nc(-c3ccc(C(F)(F)F)cc3)no2)cc1` [Example 40, methyl 4-[3-(4-trifluoromethylphenyl)-1,2,4-oxadiazol-5-yl]benzoate], the melting point lay within 177 to 178 °C.
As to `O=C(O)c1ccc(-c2cc(-c3ccccc3)no2)cc1` [Example 24, 4-(3-phenyl-5-isoxazolyl)benzoic acid], the melting point is more than 300 °C.
For `COC(=O)c1ccc(-c2nnc(-c3ccc(C(F)(F)F)cc3)o2)c(N)c1` [Example 76, methyl 3-amino-4-[5-(4-trifluoromethylphenyl)-1,3,4-oxadiazol-2-yl]benzoate], the melting point lay in the range of 237 to 238 °C.
Turning to `O=Cc1ccc(-c2noc(-c3ccc(C(F)(F)F)cc3)n2)cc1` [Example 77, 4-[5-(4-trifluoromethylphenyl)-1,2,4-oxadiazol-3-yl]benzaldehyde], the melting point lay within 145 to 146 °C.
For `O=C(O)c1ccc(-c2nc(-c3ccc(C(F)(F)F)cc3)no2)cc1` [Example 42, 4-[3-(4-trifluoromethylphenyl)-1,2,4-oxadiazol-5-yl]benzoic acid] the value was 293 to 294 °C; for `COC(=O)c1ccc(-c2nc(-c3ccc(Oc4ccccc4)cc3)no2)cc1` [Example 41, methyl 4-[3-(4-phenoxyphenyl)-1,2,4-oxadiazol-5-yl]benzoate], 112 to 113 °C; for `CCOC(=O)c1ccc(-c2ccc(-c3ccc(Cl)cc3)s2)cc1` [Example 13, ethyl 4-[5-(4-chlorophenyl)-2-thienyl]benzoate], 167 to 168 °C.
